From US9267021B2 (KOSSAN SDN BHD, priority 2010, dated 2016)
“And” between values parts separate entries of the source, which are not always exact repeats. Equal entries are not always repeated. Where two headings read alike, the source gives them in different places.

Columns and labels:
[1] = Weight of individuals in the maximization test; assay type: in vivo, guinea pig
Excerpt: Results by Weight of Individuals

guinea pig = settings: for erythema evaluation point, individual animal: group IV sensitized with DNCB; for ave. eval. (average of evaluation point) / positive ratio: positive comparison group IV sensitized with DNCB 0.1 w/v %
Experimental: Skin-Sensitize Test (Maximization Test)
This test is carried out by Juridical Foundation “Food and Medicine Safety Center” (Hatano-shi, Kanagawa) based on “Basic view about biological safety test necessary for petition of recognition of production (import) of medical device” (13.02.2003, Consideration of Medicine No. 0213001″ and “Reference materials regarding basic view of biological safety test” (19.03.2003, Examination of medical device No. 36).
Using methanol extraction of Verte Kimax 7th Sense, biological safety evaluation is obtained. And aiming to compare with Verte 710N, skin-sensitize test (maximization test) is carried out on a guinea pig using methanol extraction of Verte Kimax 7th Sense.
At the preparation of prescribing subject, methanol extract of Verte Kimax 7th Sense (hereinafter, shortened to 7th Sense-M) or methanol extract of Verte 710N (hereinafter, shortened to 710N-M) is suspended in ethanol by proportion of 1 mL to the extract obtained 1 g of analyte used for extraction, and 100 v/v % 7th Sense-M ethanol suspension and 100 v/v % 710N-M ethanol suspension are obtained. Further, BLANK obtained from methanol alone is poured into same amount of ethanol as used at the preparation of suspension of 7th Sense-M or 710N-M and 100 v/v % blank suspensions are prepared. In first skin-sensitize test, 100 v/v % 7th Sense-M ethanol suspension and 100 v/v % 710N-M ethanol suspension are replaced with same amount of olive oil, and 100 v/v % 7th Sense-M olive oil suspension and 100 v/v % 710N-M olive oil suspension are prepared. In second skin-sensitize test, 100 v/v % 7th Sense-M ethanol suspension and 100 v/v % 710N-M ethanol suspension are replaced with same amount of olive oil, and 100 v/v % 7th Sense-M olive oil suspension and 100 v/v % 710N-M olive oil suspension are prepared. In causing, 100 v/v % 7th Sense-M ethanol suspension and 100 v/v % 710N-M ethanol suspension are prepared by adding ethanol as stepwise. Further, 100 v/v % corresponding volume blank ethanol solution is used as is.
In first skin-sensitize test (treatment first day) 10 v/v % 7th Sense-M olive oil suspension or 10 v/v % 710N-M olive oil suspension and Freund's complete adjuvant are injected by intradermal injection in upper part of shoulder bone of a guinea pig. At 7 days after treatment, 10 v/v % sodium lauryl sulfate is open spread on region including intradermal injection part, and next day (8 days after treatment) 100 v/v % 7th Sense-M olive oil suspension or 100 v/v % 710N-M olive oil suspension is blockage patched to same region as second skin-sensitize test for 48 hours. In causing (22 days after treatment), 100, 20, 4, 0.8, and 0.16 v/v % ethanol suspension of 7th Sense-M or 710N-M and 100 v/v % corresponding volume BLANK ethanol solution are blockage patched for 24 hours.
Judgment is done according to judgment standard of Draize method after 24 hours and 48 hours from removal of patches.
(numbers of positive animal in group/numbers of animal in group)×100

[2] = causing conc. 0.01 w/v %, judge 24 hrs.
[3] = causing conc. 0.01 w/v %, judge 48 hrs.
[4] = causing conc. 0.1 w/v %, judge 24 hrs.
[5] = causing conc. 0.1 w/v %, judge 48 hrs.

O=[N+]([O-])c1ccc(Cl)c([N+](=O)[O-])c1 [DNCB, 1-chloro-2,4-dinitrobenzene]
weight of individual ([1]; 8th day): 472 and 420 and 444 and 453 and 440 | weight, group average ([1]; 8th day): 446 | weight of individual ([1]; 15th day): 521 and 426 and 470 and 496 and 485 | weight, group average ([1]; 15th day): 480 | weight of individual ([1]; 22nd day): 572 and 485 and 521 and 536 and 529 | weight, group average ([1]; 22nd day): 529 | weight of individual ([1]; 25th day): 590 and 481 and 533 and 544 and 541 | weight, group average ([1]; 25th day): 538 | weight of individual ([1]; first day): 430 and 375 and 396 and 416 and 395 | weight, group average ([1]; first day): 402 | weight of individual ([1]; starting date of previous test): 356 and 333 and 354 and 369 and 344 | weight, group average ([1]; starting date of previous test): 349 | erythema evaluation point, individual animal (guinea pig; causing 0.01 w/v % DNCB, judge time 24 hrs.): 3 (4×) and 4 | erythema evaluation point, individual animal (guinea pig; causing 0.01 w/v % DNCB, judge time 48 hrs.): 3 (3×) and 4 (2×) | erythema evaluation point, individual animal (guinea pig; causing 0.1 w/v % DNCB, judge time 24 hrs.): 4 (4×) and 3 | erythema evaluation point, individual animal (guinea pig; causing 0.1 w/v % DNCB, judge time 48 hrs.): 4 | ave. eval. (average of evaluation point) (guinea pig; [2]): 3.8 | positive ratio (guinea pig; [2]): 100 | ave. eval. (average of evaluation point) (guinea pig; [3]): 4.0 | positive ratio (guinea pig; [3]): 100 | ave. eval. (average of evaluation point) (guinea pig; [4]): 4.8 | positive ratio (guinea pig; [4]): 100 | ave. eval. (average of evaluation point) (guinea pig; [5]): 5.2 | positive ratio (guinea pig; [5]): 100
